Tests used:
[1] = system: CSPG production by astrocytes; experiment: Western blot of astrocyte conditioned medium, MAB2030 (chondroitin sulfate GAG stubs); assay type: cell-based, mouse; details: for effect on CSPG production by astrocytes: astrocyte conditioned media, 50 μM, 48 hours; for Reduce CSPG production: astrocytes, significance class
Description: Astrocytes are major producers of CSPGs following injury in the CNS [Jones, L. L., Margolis, R. U. & Tuszynski, M. H. The chondroitin sulfate proteoglycans neurocan, brevican, phosphacan, and versican are differentially regulated following spinal cord injury. Experimental Neurology 182, 399-411 (2003); Tang, X., Davies, J. E. & Davies, S. J. Changes in distribution, cell associations, and protein expression levels of NG2, neurocan, phosphacan, brevican, versican V2, and tenascin-C during acute to chronic maturation of spinal cord scar tissue. […] The Journal of neuroscience: the official journal of the Society for Neuroscience 20, 2427-2438 (2000); McKeon, R. J., Jurynec, M. J. & Buck, C. R. The chondroitin sulfate proteoglycans neurocan and phosphacan are expressed by reactive astrocytes in the chronic CNS glial scar. The Journal of neuroscience: the official journal of the Society for Neuroscience 19, 10778-10788 (1999); Haas, C. A., Rauch, U., Thon, N., Merten, T. & Deller, T. Entorhinal cortex lesion in adult rats induces the expression of the neuronal chondroitin sulfate proteoglycan neurocan in reactive astrocytes. The Journal of neuroscience: the official journal of the Society for Neuroscience 19, 9953-9963 (1999)] and they may help drive progression of disability in a model of progressive MS [Mayo, L. et al. Regulation of astrocyte activation by glycolipids drives chronic CNS inflammation. Nature medicine 20, 1147-1156 (2014)]. Therefore astrocytes were used as model cells to determine the ability of the sugar analogs to reduce synthesis of CSPGs. Since CSPGs are exported out of cells, the conditioned media from analog-treated astrocytes were probed by Western blots (FIG. 4). We used antibodies to both the stubs of chondroitin sulfate GAGs attached to the core protein (MAB2030) and to intact 4-sulfated chondroitin sulfate sidechains (2H6) (FIG. 4a). Particularly, we used the 2H6 antibody to label intact 4-sulfated chondroitin sulfate sidechains, and the MAB2030 antibody to detect the stubs of chondroitin sulfate GAGs attached to the core protein. […] 1998, 160 (8), 3812-3819. Poole Poole C. A.; Glant T. T.; Schofield J. R.; Chondrons from articular cartilage. (IV). Immunolocalization of proteoglycan epitopes in isolated canine tibial chondrons. J. Histochem. Cytochem. 1991, 39 (9), 1175-1187].
Astrocytes were plated in uncoated 6-well plates (3 replicate wells per treatment) at 1×10^6 cells/well in mixed glial media, and incubated at 5% CO2 and 37° C. Astrocytes were treated with compounds at 50 μM in AIM-V media for 48 hours. Media was pooled from 3 replicate wells in 15 ml 100K cutoff centricon tubes (EMD Millipore, #UFC905008), which were spun on an ultracentrifuge at 5000× g for 2 cycles of 10 minutes each. When harvested, the cell lysate was kept on ice for 5 minutes with 250 μL of RIPA buffer (ThermoFisher Scientific #89900) containing proteinase inhibitor, and then collected and centrifuged at 14000 g for 5 minutes. Total protein was quantified using a Bradford assay. Conditioned media that were to be probed for chondroitin 4-sulfate GAGs (Millipore, #MAB2030) were first digested with 0.2 U/ml chondroitinase ABC for overnight at 37° C. to remove chondroitin sulfate sidechains. Blots that were to be probed with CSA (2H6, Cosmo) or CS56 (Abcam #ab11570) were not exposed to chondroitinase ABC. Samples were heat denatured with NuPAGE® LDS Sample buffer at 70° C. for 10 minutes and then loaded into 3-8% tris-acetate pre-cast gels (ThermoFisher, #EA0478BOX). The gels were electrophoresed at a constant 150 V for 90 minutes and transferred to a […] polyvinylidene fluoride membrane at a constant 250 mA for 60 minutes. The membranes were blocked for one hour with 10% skim milk in Tris-buffered saline (TBS; 0.9% NaCl, 10 mM Tris-HCl, pH 7.5) containing 0.5% Tween 20 (TBS-T). Primary antibodies were added in 3% skim milk and incubated overnight at 4° C. […]

splenocytes = experiment: Splenocyte thymidine proliferation assay (anti-CD3/anti-CD28); assay type: cell-based, mouse; details: for Reduce T cell proliferation: activated splenocytes, significance class
Experimental: It was assessed whether the glucosamine analogs have immunomodulatory properties on splenocytes isolated in culture. T cells within the splenocyte pool were polyclonally activated with anti-CD3 and anti-CD28 antibodies in the presence of compounds for 48 hours, and proliferation was determined by the uptake of tritiated thymidine and expressed as counts per minute. The relative change in proliferation of treated versus control splenocytes was taken in order to rank the compounds across multiple independent experiments (FIG. 8a).
The spleens were isolated from 8-10-week-old female C57BL/6 mice and homogenized. The cells were isolated by Ficoll gradient and spun for 30 min at 1,800 r.p.m. The cell suspension was removed and the cells were washed once with PBS. The cell pellet was subsequently re-suspended in Roswell Park Memorial Institute media containing 10% fetal bovine serum, 1% penicillin/streptomycin, 1% sodium pyruvate and 1% L-glutamine. Trypan blue exclusion was used to count live cells, and the cells were plated at 2.5×10^5 cells per well in a round-bottom 96-well plate and activated with 1,000 ng/ml plate-bound anti-CD3 and 1,000 ng/ml anti-CD28 suspended in media to preferentially activate T lymphocytes. Compounds were added at final concentrations of 25 μM. The cells were kept at 37° C. and 5% CO2 for 30 h, after which 10 μl/well (1 μCi per well) of 3H-thymidine was added for 18 h. The cells containing thymidine were harvested onto filter mats using a cell harvester and mats were allowed to dry for 24 h. The results were read by liquid scintillation counts.

Compound	effect on CSPG production by astrocytes [1]	Reduce CSPG production [1]	Reduce T cell proliferation (splenocytes)	splenocyte proliferation (splenocytes; 25 μM, 48 hours)
CC(=O)O[C@@H]1[C@@H](OC(C)=O)[C@H](OCCOCCOCCOCCO)OC[C@H]1OC(C)=O [Compound 21, 2-(2-(2-(2-Hydroxyethoxy)ethoxy)ethoxy)ethyl 2,3,4-tri-O-acetyl-β-D-xylopyranoside]	effective at reducing CSPGs			
CC(=O)N[C@H]1C(OC(C)=O)O[C@H](COC(C)=O)[C@H](Cl)[C@@H]1OC(C)=O (stereo partly drawn) [Compound 15, 2-Acetamido-1,3,6-tri-O-acetyl-2,4-dideoxy-4-chloro-α/β-D-galactopyranoside]		n.s.	* (*p < 0.05)	
CC(=O)OC[C@H]1OC(OC(C)=O)[C@H](NC(=O)C(F)(F)F)[C@@H](OC(C)=O)[C@@H]1F (stereo partly drawn) [Compound 9, 1,3,6-Tri-O-acetyl-2,4-dideoxy-4-fluoro-2-trifluroacetamido-α/β-D-glucopyranose]	did not lower CSPG production in astrocytes	n.s.	*** (***p < 0.001)	reduced splenocyte proliferation
CC(=O)O[C@@H]1[C@@H](OC(C)=O)[C@H](OCCS(=O)(=O)[O-])OC[C@H]1OC(C)=O.[Na+] [Compound 22, 2-Sulfoethyl 2,3,4-tri-O-acetyl-β-D-xylopyranoside, sodium salt]	CSPG production was not impacted			
CO[C@H]1[C@H](F)[C@@H](COC(C)=O)OC(OC(C)=O)[C@@H]1NC(C)=O (stereo partly drawn) [Compound 6, 2-Acetamido-1,6-di-O-acetyl-2,4-dideoxy-4-fluoro-3-O-methyl-α/β-D-glucopyranose]	did not affect CSPG synthesis	n.s.	n.s.	
CC(=O)O[C@@H]1[C@@H](OC(C)=O)[C@H](OCCO)OC[C@H]1OC(C)=O [Compound 20, 2-Hydroxyethyl 2,3,4-tri-O-acetyl-β-D-xylopyranoside]	CSPG production was not impacted			
CC(=O)N[C@H]1C(O)O[C@H](CO)[C@@H](O)[C@@H]1O (stereo partly drawn) [GlcNAc, N-Acetyl-D-glucosamine, reference compound]	did not affect CSPG production			
CC(=O)O[C@@H]1OC[C@@H](F)[C@H](OC(C)=O)[C@H]1OC(C)=O [Compound 28, 1,2,3-tri-O-acetyl-4-deoxy-4-fluoro-β-D-xylopyranose]	did not reduce CSPG production			
O[C@@H]1[C@@H](O)[C@H](OCc2ccccc2)OC[C@H]1O [Compound 19, reference compound]	CSPG production was not impacted	n.s.	n.s.	
COC[C@H]1OC(OC(C)=O)[C@H](NC(C)=O)[C@@H](OC)[C@@H]1F (stereo partly drawn) [Compound 5, 2-Acetamido-1-O-acetyl-2,4-dideoxy-4-fluoro-3,6-di-O-methyl-α/β-D-glucopyranose]	did not affect CSPG synthesis	n.s.	n.s.	
CC(=O)O[C@@H]1[C@@H](OC(C)=O)[C@@H](OCCCCCCS(=O)(=O)[O-])OC[C@H]1OC(C)=O.[Na+] [Compound 24, 6-Sulfohexyl 2,3,4-tri-O-acetyl-α-D-xylopyranoside, sodium salt]	did not act as an inhibitor			
